Laboratory results: patent publication US8633225B2, “Piperidinium compounds and cosmetic compositions containing them” (Beiersdorf AG, priority 2006, dated 2014)

Assay: inhibiting or reducing perspiration (antihidrotic effect); statement only, no test described
Details: qualitative statement

CCC(C)C(C(=O)OC1CC[N+](C)(C)CC1)c1ccccc1.[Br-] (stereo not shown) [4-{[2-(2-butyl)-2-phenylacetyl)oxy]}-1,1-dimethyl-piperidinium bromide]
efficacy in inhibiting perspiration: very good efficacy in inhibiting perspiration
